The values that follow come from ChEMBL document CHEMBL1144772, “Synthesis, in vitro pharmacology, and pharmacokinetic profiles of 2-[1-amino-1-carboxy-2-(9H-xanthen-9-yl)-ethyl]-1-fluorocyclopropanecarboxylic acid and its 6-heptyl ester, a potent mGluR2 antagonist” (Bioorg Med Chem, 2008).

pIC50: −log10 of the molar value.

By Tmax is commonly meant the time from dosing to the highest level. Usually Cmax stands for the maximum level reached in the sampled fluid or tissue. For orientation: half-life means how long it takes for the measured level to halve. By AUC(0-inf) is commonly meant the area under the concentration-time curve extrapolated to infinity. The pIC50 is −log10 of the IC50, conventionally taken in molar units.

The nature of data set [1]: Tmax in Sprague-Dawley rat at 10 mg/kg, po. It counts as ADME, organism-based. Also on record: dose 10 mg/kg, route oral. To be noted: in vivo.
A short description of data set [2]: Cmax in Sprague-Dawley rat at 10 mg/kg, po. Type of data set: ADME, organism-based. Also on record: dose 10 mg/kg, route oral. To be noted: in vivo.
Data set [3] can be described thus: Half life in Sprague-Dawley rat at 10 mg/kg, po. The note with it: in vivo. Type of data set: ADME, organism-based. Also on record: dose 10 mg/kg, route oral.
Data set [4] can be described thus: AUC (0 to infinity) in Sprague-Dawley rat at 10 mg/kg, po. It counts as ADME, organism-based. Also on record: dose 10 mg/kg, route oral, time infinity. To be noted: plasma.
Data set [5] can be described thus: Transformation of (+)-17 to (+)-16a in rat liver S9 fraction at 3 uM after 60 mins.
The nature of data set [6]: Transformation of (+)-17 to (+)-16a in human liver S9 fraction at 3 uM after 60 mins.
The nature of data set [7]: Transformation of (+)-17 to (+)-16a in monkey liver S9 fraction at 3 uM after 60 mins. The note with it: rhesus monkey.
Data set [8] addresses Metabotropic glutamate receptor 2 (Homo sapiens, UniProt Q14416). The data set is described as follows: Displacement of [3H]-MGS0008 from mGluR2 expressed in CHO cells. Type of data set: cell-based. On the technique in general: In a radioligand displacement assay an active substance lowers the binding of a labelled ligand.

Chain of Metabotropic glutamate receptor 2 (Q14416 whole entry): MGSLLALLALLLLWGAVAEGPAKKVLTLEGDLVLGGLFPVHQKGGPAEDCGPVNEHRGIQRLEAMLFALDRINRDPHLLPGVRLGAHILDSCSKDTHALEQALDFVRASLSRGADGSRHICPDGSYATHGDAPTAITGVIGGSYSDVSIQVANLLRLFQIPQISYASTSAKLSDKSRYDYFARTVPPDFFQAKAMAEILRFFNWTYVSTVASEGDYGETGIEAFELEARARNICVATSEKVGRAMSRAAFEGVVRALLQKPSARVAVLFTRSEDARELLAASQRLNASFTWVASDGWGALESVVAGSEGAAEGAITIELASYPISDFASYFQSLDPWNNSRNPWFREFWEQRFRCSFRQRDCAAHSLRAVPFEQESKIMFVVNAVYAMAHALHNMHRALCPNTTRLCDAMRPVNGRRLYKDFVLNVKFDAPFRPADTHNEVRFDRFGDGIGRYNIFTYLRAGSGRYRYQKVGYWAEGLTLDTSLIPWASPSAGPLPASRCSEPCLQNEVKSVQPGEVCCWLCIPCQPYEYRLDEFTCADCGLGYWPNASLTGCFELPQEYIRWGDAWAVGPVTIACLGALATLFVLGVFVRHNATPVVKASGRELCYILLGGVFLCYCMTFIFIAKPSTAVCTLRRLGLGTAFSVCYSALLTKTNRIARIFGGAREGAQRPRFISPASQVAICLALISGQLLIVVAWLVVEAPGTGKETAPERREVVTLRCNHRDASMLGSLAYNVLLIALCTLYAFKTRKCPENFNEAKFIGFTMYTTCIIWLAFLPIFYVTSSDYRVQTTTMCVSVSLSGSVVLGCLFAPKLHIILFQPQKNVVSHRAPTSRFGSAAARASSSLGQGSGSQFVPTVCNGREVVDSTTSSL

Turning to `CCCCCCCOC(=O)[C@@]1(F)C[C@@H]1[C@@](N)(CC1c2ccccc2Oc2ccccc21)C(=O)O`, the Tmax in data set [1] worked out at 2 h. The compound further showed a Cmax in data set [2] of 8640 ng/mL. Moreover, the half-life in data set [3] is 3.87 h. The AUC(0-inf) in data set [4] was found to be 78000 ng·h/mL. Further, the transformation ratio at 1 h, 3 µM in data set [5] turned out to be 68.1%; in data set [6], 12.1%; in data set [7], 7.3%.
Regarding `N[C@](CC1c2ccccc2Oc2ccccc21)(C(=O)O)[C@H]1C[C@]1(F)C(=O)O`, the pIC50 in data set [8] was 8.46. In data set [1], the Tmax amounted to 2.67 h. This compound also displayed a maximum concentration (Cmax) in data set [2] of 308 ng/mL. This compound had a half-life in data set [3] of 5.05 h. Besides, the AUC(0-inf) in data set [4] is 3310 ng·h/mL.
In turn, `N[C@@](CC1c2ccccc2Oc2ccccc21)(C(=O)O)[C@@H]1C[C@@]1(F)C(=O)O` gave a pIC50 in data set [8] below 5.00.
Turning to `N[C@](CC1c2ccccc2Oc2ccccc21)(C(=O)O)[C@H]1C[C@@H]1C(=O)O`, the AUC(0-inf) in data set [4] stood at 284 ng·h/mL.
On to `NC(CC1c2ccccc2Oc2ccccc21)(C(=O)O)C1CC1(F)C(=O)O` (racemic; form 1), for which the pIC50 in data set [8] is 8.35.
Take `NC(CC1c2ccccc2Oc2ccccc21)(C(=O)O)C1CC1(F)C(=O)O` (racemic; form 2): the pIC50 in data set [8] was 6.68.
